Literature values in patent publication US8853170B2, “Compositions comprising sugar-cysteine products” (Max International, LLC, priority 2010, dated 2014).

Columns and labels:
[1] = system: mice exposed to cyclophosphamide; details: 8 mmol/kg
[2] = system: glutathione levels; details: mice, 8 mmol/kg i.p.
[3] = system: acetaminophen hepatic and renal toxicity; details: mice, doses of 2 g/kg
[4] = system: irradiation-induced bowel injury; details: mice, doses of 1 g/kg
[5] = system: humans; details: ribose administered directly to humans
[6] = system: healthy humans; details: orally 8-10 g per day by an adult
[7] = system: ATP levels; details: dogs subjected to ischemia, about 3 g/day for at least 5 days

Structure (SMILES)	delivery of protective amounts of cysteine [1]	increased glutathione levels, heart ([2]; heart) [times]	increased glutathione levels, muscle tissue ([2]; muscle tissue) [times]	protection against acetaminophen hepatic and renal toxicity [3]	protection against irradiation-induced bowel injury [4]	toxicity [5]	exercise capacity [6]	ATP levels [7]
O=C(O)[C@@H]1CSC(C(O)C(O)C(O)CO)N1 (stereo partly drawn) [RibCys, 2(R,S)-D-ribo-(1′,2′,3′,4′-tetrahydroxybutyl)thiazolidine-4(R)-carboxylic acid]	deliver effective protective amounts of cysteine	1.5	2.5	protect mice against acetaminophen hepatic and renal toxicity	protect mice against irradiation-induced bowel injury	–	–	–
O=C[C@H](O)[C@H](O)[C@H](O)CO [ribose]	–	–	–	–	–	essentially non-toxic over wide dosage ranges	increase exercise capacity	effectively restored and maintained ATP levels
